Test results as given in patent publication US8598348B2, “Purification of 1-[2-(2,4-dimethylphenylsulfanyl)phenyl]piperazine” (H. Lundbeck A/S, priority 2009, dated 2013).
Structures can show the parent of a compound that is named as a salt.

Legend:
Solubility in water = type: physicochemical
[1] = Water absorption when exposed to high relative humidity; type: physicochemical
[2] = judged from DSC and solubility data; as shown in WO 2007/144005; cited from earlier work

- solubility (Solubility in water): 1200 µg/mL
- absorption of water when exposed to high relative humidity [1]: about 0.6%
Structure (SMILES): Cc1ccc(Sc2ccccc2N2CCNCC2)c(C)c1 [beta form of the hydrobromide, 1-[2-(2,4-dimethylphenylsulfanyl)phenyl]piperazine-HBr]
- stability among the α-, β- and γ-forms of the HBr salt [2]: most stable form
